# Values quoted from earlier work in patent US12394502B2, “Method for predicting HLA-binding peptides using protein structural features” (The General Hospital Corporation, priority 2019, dated 2025).
# How the values were obtained:
# [1] = tested on: advanced hormone refractory prostate cancer patients; conditions: personalized vaccination alone or combined with a low dose of estramustine
# [2] = tested on: Stage IV Melanoma Patients; conditions: temozolomide combined with peptide vaccination
# [3] = tested on: ovarian carcinoma patients
# [4] = more than 25 clinical trials
molecule,measurement,setting,value
C[C@]12CC[C@@H]3c4ccc(OC(=O)N(CCCl)CCCl)cc4CC[C@H]3[C@@H]1CC[C@@H]2O [estramustine],patients with >50% decrease in serum prostate specific antigen (PSA),[1],54%
Cn1nnc2c(C(N)=O)ncn2c1=O [temozolomide],toxicity,[2],low toxicity
Polyinosinic-Polycytidylic Acid-poly-L-lysine Carboxymethylcellulose [poly-ICLC],generation of NY-ESO-1-specific CD4+ and CD8+ T cell and antibody responses,"[3]; 1.4 mg poly-ICLC and Montanide added to OLP, compared to OLP alone or OLP and Montanide, subcutaneous",markedly enhanced
same,"patients showing induction of CD4+ and CD8+ T cell, as well as antibody responses to the peptide",[3]; poly-ICLC in combination with NY-ESO-1 peptide vaccine (in addition to Montanide),> 90%
same,safety,healthy human volunteers; human volunteer study,safe
same,differential expression of genes versus placebo,"healthy human volunteers; one single s.c. administration, 8 subjects versus 4 placebo, whole blood",up to 212 genes
same,toxicity profile,[4],relatively benign toxicity profile
